Converted amounts (≈) assume the structure as drawn.
Assays:
Format in all cases: cell-based
[1] = tested on: Mycobacterium tuberculosis; assay: MIC, series dilution test, Jenssen egg medium; settings: 37°C, read-out: minimum inhibitory concentration
Protocol: The compounds of Examples 12 and 13 show minimum inhibitory concentrations of 32 γ/ml of nutrient medium in the series dilution test, Jenssen egg medium, 37°C, against Mycobacterium tuberculosis.

Streptococcus pyogenes = assay: MIC, plate test (Table 1); settings: with serum, 37°C, 24 hours, read-out: Minimum inhibitory concentration (MIC)
Protocol: (§1) The minimum inhibitory concentration (MIC) was determined in the plate test on a complete nutrient base of the following composition: 10 g of proteose-peptone, 10 g of veal infusion, 2 g of dextrose, 3 g of sodium chloride, 2 g of disodium phosphate, 1 g of sodium acetate, 0.01 g of adenine sulphate, 0.01 g of guanine hydrochloride, 0.01 g of uracil, 0.01 g. of xantin, 12 g of agar-agar and 1 liter of water.
(§2) The incubation temperature was 37°C and the incubation time was 24 hours.

Escherichia coli C165 = assay: MIC, plate test (Table 1); settings: 37°C, 24 hours, read-out: Minimum inhibitory concentration (MIC)
Protocol: as §1, §2

Salmonella species [2] = assay: MIC, plate test (Table 1); settings: 37°C, 24 hours, read-out: Minimum inhibitory concentration (MIC)
Protocol: as §1, §2

Klebsiella 63 = assay: MIC, plate test (Table 1); settings: 37°C, 24 hours, read-out: Minimum inhibitory concentration (MIC)
Protocol: as §1, §2

Pseudomonas aeruginosa B [3] = assay: MIC, plate test (Table 1); settings: 37°C, 24 hours, read-out: Minimum inhibitory concentration (MIC)
Protocol: as §1, §2

Proteus vulgaris 1017 [4] = assay: MIC, plate test (Table 1); settings: 37°C, 24 hours, read-out: Minimum inhibitory concentration (MIC)
Protocol: as §1, §2

[5] = tested on: Staphylococcus aureus 133; assay: MIC, plate test (Table 1); settings: 37°C, 24 hours, read-out: Minimum inhibitory concentration (MIC)
Protocol: as §1, §2

Pseudomonas aeruginosa w [6] = assay: MIC, plate test (Table 1); settings: 37°C, 24 hours, read-out: Minimum inhibitory concentration (MIC)
Protocol: as §1, §2

Escherichia coli A261 = assay: MIC, plate test (Table 1); settings: 37°C, 24 hours, read-out: Minimum inhibitory concentration (MIC)
Protocol: as §1, §2

Klebsiella 8085 = assay: MIC, plate test (Table 1); settings: 37°C, 24 hours, read-out: Minimum inhibitory concentration (MIC)
Protocol: as §1, §2

[7] = tested on: Haemophilus influenzae 281; assay: Turbidity test in Mueller-Hinton nutrient solution; settings: 100 γ/ml, 24 hours, 37°C
Enterococcus species = assay: Turbidity test in Mueller-Hinton nutrient solution; settings: 100 γ/ml, 24 hours, 37°C
Brucella species = settings: 100 γ/ml, 24 hours, 37°C
[8] = tested on: Staphylococcus aureus 133; assay: Turbidity test in Mueller-Hinton nutrient solution; settings: 100 γ/ml, 24 hours, 37°C
Proteus vulgaris 1017 [9] = assay: Turbidity test in Mueller-Hinton nutrient solution; settings: 100 γ/ml, 24 hours, 37°C
[10] = tested on: Bordetella bronchiseptica; assay: Turbidity test in Mueller-Hinton nutrient solution; settings: 100 γ/ml, 24 hours, 37°C
[11] = tested on: Aeromonas hydrophila species; assay: Turbidity test in Mueller-Hinton nutrient solution; settings: 100 γ/ml, 24 hours, 37°C
Klebsiella K 10 = assay: Turbidity test in Mueller-Hinton nutrient solution; settings: 100 γ/ml, 24 hours, 37°C
Serratia species = assay: Turbidity test in Mueller-Hinton nutrient solution; settings: 100 γ/ml, 24 hours, 37°C
[12] = tested on: Neisseria catarrhalis species; assay: Turbidity test in Mueller-Hinton nutrient solution; settings: 100 γ/ml, 24 hours, 37°C
Salmonella species [13] = assay: Turbidity test in Mueller-Hinton nutrient solution; settings: 100 γ/ml, 24 hours, 37°C
Protocol: (§3) 100 γ/ml of the compounds according to the invention are dissolved in Mueller-Hinton nutrient solution, with addition of 0.1% of glucose. The nutrient solution contains […] microbes per ml. The mixture is incubated in glass test tubes for 24 hours at 37°C and after this time the degree of turbidity is determined.

Shigella species = assay: Turbidity test in Mueller-Hinton nutrient solution; settings: 100 γ/ml, 24 hours, 37°C
Protocol: as §3

Enterobacter species = assay: Turbidity test in Mueller-Hinton nutrient solution; settings: 100 γ/ml, 24 hours, 37°C
Clostridium tetani = settings: 100 γ/ml, 24 hours, 37°C
[14] = tested on: Corynebacterium pyogenes M; assay: Turbidity test in Mueller-Hinton nutrient solution; settings: 100 γ/ml, 24 hours, 37°C
Lactobacillus species = assay: Turbidity test in Mueller-Hinton nutrient solution; settings: 100 γ/ml, 24 hours, 37°C
[15] = tested on: Corynebacterium diphtheriae gravis; assay: Turbidity test in Mueller-Hinton nutrient solution; settings: 100 γ/ml, 24 hours, 37°C
Klebsiella K 63 = assay: Turbidity test in Mueller-Hinton nutrient solution; settings: 100 γ/ml, 24 hours, 37°C
Bacteroides species = assay: Turbidity test in Mueller-Hinton nutrient solution; settings: 100 γ/ml, 24 hours, 37°C
Clostridium botulinium = tested on: Clostridium botulinium
[16] = tested on: Proteus indole-negative, species; assay: Turbidity test in Mueller-Hinton nutrient solution; settings: 100 γ/ml, 24 hours, 37°C
Escherichia coli 14 = assay: Turbidity test in Mueller-Hinton nutrient solution; settings: 100 γ/ml, 24 hours, 37°C
[17] = tested on: Proteus indole-positive, species; assay: Turbidity test in Mueller-Hinton nutrient solution; settings: 100 γ/ml, 24 hours, 37°C
[18] = tested on: Pasteurella pseudotuberculosis; settings: 100 γ/ml, 24 hours, 37°C
[19] = tested on: Diplococcus pneumoniae species; assay: Turbidity test in Mueller-Hinton nutrient solution; settings: 100 γ/ml, 24 hours, 37°C
Pseudomonas aeruginosa w [20] = assay: Turbidity test in Mueller-Hinton nutrient solution; settings: 100 γ/ml, 24 hours, 37°C
Escherichia coli A 261 = assay: Turbidity test in Mueller-Hinton nutrient solution; settings: 100 γ/ml, 24 hours, 37°C
Pseudomonas aeruginosa B [21] = assay: Turbidity test in Mueller-Hinton nutrient solution; settings: 100 γ/ml, 24 hours, 37°C
Escherichia coli C 165 = assay: Turbidity test in Mueller-Hinton nutrient solution; settings: 100 γ/ml, 24 hours, 37°C
Streptococcus pyogenes W = assay: Turbidity test in Mueller-Hinton nutrient solution; settings: 100 γ/ml, 24 hours, 37°C
Borrelia species = assay: Turbidity test in Mueller-Hinton nutrient solution; settings: 100 γ/ml, 24 hours, 37°C

Q: What does the source list for CCCCCCCCCCCCCCCCCC(=O)Nc1n[n+]([O-])c2ccccc2[n+]1[O-] [Example 6]?
A: MIC [1]: 32 µg/mL (≈ 72 µM); MIC (Streptococcus pyogenes): 128 µg/mL (≈ 288 µM); MIC (Escherichia coli C165): 128 µg/mL (≈ 288 µM); MIC (Salmonella species [2]): 128 µg/mL (≈ 288 µM); MIC (Klebsiella 63): 128 µg/mL (≈ 288 µM); MIC (Pseudomonas aeruginosa B [3]): 128 µg/mL (≈ 288 µM); MIC (Proteus vulgaris 1017 [4]): 128 µg/mL (≈ 288 µM); MIC [5]: 128 µg/mL (≈ 288 µM); MIC (Pseudomonas aeruginosa w [6]): 128 µg/mL (≈ 288 µM); MIC (Escherichia coli A261): 128 µg/mL (≈ 288 µM); MIC (Klebsiella 8085): 8 µg/mL (≈ 18 µM)

Q: CNC(=O)Nc1n[n+]([O-])c2ccccc2[n+]1[O-] [Example 7, 1'-methyl-3'-[1,4-dioxo-benzo-1,2,4-triazin-3-yl]-urea] was tested. Which MIC (Streptococcus pyogenes) did it give?
A: 1 µg/mL (≈ 4.25 µM)

Q: And the MIC (Escherichia coli C165)?
A: 4 µg/mL (≈ 17 µM)

Q: And the MIC (Salmonella species [2])?
A: 4 µg/mL (≈ 17 µM)

Q: And the MIC (Klebsiella 63)?
A: 8 µg/mL (≈ 34 µM)

Q: What about the MIC (Pseudomonas aeruginosa B [3]) of the same compound?
A: 128 µg/mL (≈ 544 µM)

Q: What about the MIC (Proteus vulgaris 1017 [4]) of the same compound?
A: 1 µg/mL (≈ 4.25 µM)

Q: And the MIC [5]?
A: 1 µg/mL (≈ 4.25 µM)

Q: And the MIC (Pseudomonas aeruginosa w [6])?
A: 128 µg/mL (≈ 544 µM)

Q: And the MIC (Escherichia coli A261)?
A: 4 µg/mL (≈ 17 µM)

Q: What about the MIC (Klebsiella 8085) of the same compound?
A: 1 µg/mL (≈ 4.25 µM)

Q: What does the source list for CNC(=O)Nc1n[n+]([O-])c2ccccc2[n+]1[O-] [Example 12, 1'-[1,4-dioxo-benzo-1,2,4-triazin-3-yl]-3'-methylurea]?
A: MIC [1]: 32 µg/mL (≈ 136 µM); turbidity after incubation [7]: remained free of turbidity; turbidity after incubation (Enterococcus species): remained free of turbidity; turbidity after incubation (Brucella species): remained free of turbidity; turbidity after incubation [8]: remained free of turbidity; turbidity after incubation (Proteus vulgaris 1017 [9]): remained free of turbidity; turbidity after incubation [10]: remained free of turbidity; turbidity after incubation [11]: remained free of turbidity; turbidity after incubation (Klebsiella K 10): remained free of turbidity; turbidity after incubation (Serratia species): remained free of turbidity; turbidity after incubation [12]: remained free of turbidity; turbidity after incubation (Salmonella species [13]): remained free of turbidity; turbidity after incubation (Shigella species): remained free of turbidity; turbidity after incubation (Enterobacter species): remained free of turbidity; turbidity after incubation (Clostridium tetani): remained free of turbidity; turbidity after incubation [14]: remained free of turbidity; turbidity after incubation (Lactobacillus species): remained free of turbidity; turbidity after incubation [15]: remained free of turbidity; turbidity after incubation (Klebsiella K 63): remained free of turbidity; turbidity after incubation (Bacteroides species): remained free of turbidity; turbidity after incubation (Clostridium botulinium): remained free of turbidity; turbidity after incubation [16]: remained free of turbidity; turbidity after incubation (Escherichia coli 14): remained free of turbidity; turbidity after incubation [17]: remained free of turbidity; turbidity after incubation [18]: remained free of turbidity; turbidity after incubation [19]: remained free of turbidity; turbidity after incubation (Pseudomonas aeruginosa w [20]): remained free of turbidity; turbidity after incubation (Escherichia coli A 261): remained free of turbidity; turbidity after incubation (Pseudomonas aeruginosa B [21]): remained free of turbidity; turbidity after incubation (Escherichia coli C 165): remained free of turbidity; turbidity after incubation (Streptococcus pyogenes W): remained free of turbidity; turbidity after incubation (Borrelia species): remained free of turbidity

Q: Which results are given for O=C(NCCO)Nc1n[n+]([O-])c2ccccc2[n+]1[O-] [Example 14, 1'-[1,4-dioxo-benzo-1,2,4-triazin-3-yl]-3'-[β-hydroxy-ethyl]-urea]?
A: turbidity after incubation [7]: remained free of turbidity; turbidity after incubation (Enterococcus species): remained free of turbidity; turbidity after incubation (Brucella species): remained free of turbidity; turbidity after incubation [8]: remained free of turbidity; turbidity after incubation (Proteus vulgaris 1017 [9]): remained free of turbidity; turbidity after incubation [10]: remained free of turbidity; turbidity after incubation [11]: remained free of turbidity; turbidity after incubation (Klebsiella K 10): remained free of turbidity; turbidity after incubation (Serratia species): remained free of turbidity; turbidity after incubation [12]: remained free of turbidity; turbidity after incubation (Salmonella species [13]): remained free of turbidity; turbidity after incubation (Shigella species): remained free of turbidity; turbidity after incubation (Enterobacter species): remained free of turbidity; turbidity after incubation (Clostridium tetani): remained free of turbidity; turbidity after incubation [14]: remained free of turbidity; turbidity after incubation (Lactobacillus species): remained free of turbidity; turbidity after incubation [15]: remained free of turbidity; turbidity after incubation (Klebsiella K 63): remained free of turbidity; turbidity after incubation (Bacteroides species): remained free of turbidity; turbidity after incubation (Clostridium botulinium): remained free of turbidity; turbidity after incubation [16]: remained free of turbidity; turbidity after incubation (Escherichia coli 14): remained free of turbidity; turbidity after incubation [17]: remained free of turbidity; turbidity after incubation [18]: remained free of turbidity; turbidity after incubation [19]: remained free of turbidity; turbidity after incubation (Pseudomonas aeruginosa w [20]): remained free of turbidity; turbidity after incubation (Escherichia coli A 261): remained free of turbidity; turbidity after incubation (Pseudomonas aeruginosa B [21]): remained free of turbidity; turbidity after incubation (Escherichia coli C 165): remained free of turbidity; turbidity after incubation (Streptococcus pyogenes W): remained free of turbidity; turbidity after incubation (Borrelia species): remained free of turbidity

Reference: patent US3957779A, “Benzo-1,2,4-triazines” (Bayer Aktiengesellschaft, priority 1972, dated 1976)
